From article PMC7321065, “Discovery of New Schiff Bases Tethered Pyrazole Moiety: Design, Synthesis, Biological Evaluation, and Molecular Docking Study as Dual Targeting DHFR/DNA Gyrase Inhibitors with Immunomodulatory Activity” (Molecules, 2020)
In brackets after ≈: the same amount, converted by molar mass. Like-named read-outs stand apart in the source and are kept apart here.

Assays:
[1] = tested on: S. aureus ATCC 43300 (MRSA); assay: Inhibition zone against MDRB, agar plate diffusion; assay type: cell-based
[2] = tested on: Vero cells (ATCC CCL-81); assay: Cytotoxicity on normal cells, MTT assay; assay type: cell-based, African green monkey; settings: MTT, healthy non-cancer cells, read-out: IC50 Vero
Method: 3-[4, 5-Dimethyl-2-thiazolyl)-2, 5-diphenyl-2 H-tetrazolium bromide (MTT) protocol is based on the cleavage of the tetrazolium salt by mitochondrial dehydrogenases in viable cells. Cells were dispensed in a 96 well sterile microplate (5 x 10^4 cells/well), and incubated at 37 °C with series of different concentrations, in DMSO, of each tested compound or Doxorubicin ® (positive control) for 48 h in a serum free medium prior to the MTT assay. After incubation, media were carefully removed, 40 µL of MTT (2.5 mg/mL) were added to each well and then incubated for an additional 4 h. The purple formazan dye crystals were solubilized by the addition of 200 µL of DMSO. The absorbance was measured at 590 nm using a SpectraMax® Paradigm® Multi-Mode microplate reader. The relative cell viability was expressed as the mean percentage of viable cells compared to the untreated control cells.
All experiments were conducted in triplicate and repeated in three different days. All the values were represented as mean ± SD. IC 50s were determined by probit analysis using SPSS software program (SPSS

[3] = tested on: S. aureus ATCC 33591; assay: MIC/MBC against MDRB, paper disk diffusion; assay type: cell-based; settings: Staphylococcus aureus, ATCC33591, S. aureus ATCC 33591; for MBC: read-out: MBC; for MIC: read-out: MIC
Description: (§1) The inhibition zone (IZ, mm±standard deviation) of pyrazole Schiff bases ( 6b, 7b, 7c, 8a, 8d and 9b) was
(§2) measurement according to the agar plate diffusion method against a panel of multidrug-resistant bacteria
(MDRB). […]

[4] = tested on: E. coli ATCC BAA-196; assay: MIC/MBC against MDRB, paper disk diffusion; assay type: cell-based; settings: Escherichia coli, ATCCBAA196, E. coli ATCC BAA-196; for MBC: read-out: MBC; for MIC: read-out: MIC
Description: as §1, §2
(MDRB). […]

[5] = tested on: S. aureus ATCC 43300 (MRSA); assay: MIC/MBC against MDRB, paper disk diffusion; assay type: cell-based; settings: Staphylococcus aureus, S. aureus ATCC 43300; for MBC: read-out: MBC; for MIC: read-out: MIC
Description: as §1, §2
(MDRB). […]

[6] = tested on: P. aeruginosa ATCC BAA-2111; assay: MIC/MBC against MDRB, paper disk diffusion; assay type: cell-based; settings: Pseudomonas aeruginosa, ATCCBAA2111, P. aeruginosa ATCC BAA-2111; for MBC: read-out: MBC; for MIC: read-out: MIC
Description: as §1, §2
(MDRB). […]

[7] = tested on: Fusarium oxysporum; assay: Inhibition zone, agar plate diffusion; assay type: cell-based; settings: Fo, mm ± standard deviation, sample at 0.5 mg/mL, read-out: Inhibition zone (IZ)
How it was run: (§3)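 Compounds in DMSO, with DMSO as negative control, were tested at 0.5 mg/mL in agar wells cut 10 mm wide.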

[8] = tested on: Salmonella typhi; assay: Inhibition zone, agar plate diffusion; assay type: cell-based; settings: Salmonella enterica, St, mm ± standard deviation, sample at 0.5 mg/mL, read-out: Inhibition zone (IZ)
How it was run: as §3

SMILES | Mean Diameter of Inhibition Zone against MDRB [1] [mm] | IC50 ([2]; Chlorocebus sabaeus, Vero) [µM] | IC50 [2] [µM] | MBC [3] [µg/mL] | MIC [3] [µg/mL] | MBC [4] [µg/mL] | MIC [4] [µg/mL] | MBC [5] [µg/mL] | MIC [5] [µg/mL] | MBC [6] [µg/mL] | MIC [6] [µg/mL] | zone of inhibition at 500 µg/mL [7] [mm] | zone of inhibition at 500 µg/mL [8] [mm]
COc1ccc(Nc2n[nH]c(N=Cc3ccc(N4CCCCC4)cc3)c2C(N)=O)cc1 [8a, 3-(p-Methoxyphenylamino)-5-(4-(piperidin-1-yl)benzylideneamino)-1H-pyrazole-4-carboxamide] | 26 ± 0.15 | > 120 | 120.5 ± 0.34 | 7.8 (≈ 18.6 µM) | 3.9 (≈ 9.32 µM) | 3.9 (≈ 9.32 µM) | 1.95 (≈ 4.66 µM) | 3.9 (≈ 9.32 µM) | 1.95 (≈ 4.66 µM) | 7.8 (≈ 18.6 µM) | 3.9 (≈ 9.32 µM) | 20 ± 0.82 | 23 ± 0.11
COc1ccc(Nc2n[nH]c(N=Cc3cc(OC)c(OC)c(OC)c3)c2C(=O)Nc2ccccc2)cc1 [9b, 3-(p-Methoxyphenylamino)-N-phenyl-5-(3,4,5-trimethoxybenzylideneamino)-1H-pyrazole-4-carboxamide] | 24 ± 0.65 | > 120 | 195.9 ± 0.57 | 3.31 (≈ 6.6 µM) | 1.95 (≈ 3.89 µM) | 11.9 (≈ 23.7 µM) | 6.25 (≈ 12.5 µM) | 4.5 (≈ 8.97 µM) | 2.5 (≈ 4.98 µM) | 9.88 (≈ 19.7 µM) | 5.2 (≈ 10.4 µM) | 17 ± 0.5 | 23 ± 0.4
